According to article PMC4967369 (Xenobiotica; the fate of foreign compounds in biological …, 2015):
Like-named read-outs stand apart in the source and are kept apart here.

What was measured:
[1] = in vivo
[2] = dog, in vivo
[3] = system: liver microsomes from 13 different species; assay: Isoflavone glucuronidation by liver microsomes from 13 different species; format: in vitro ADME, 13 species
[4] = Isoflavone glucuronidation assay, human liver microsomes; format: in vitro ADME; conditions: human, pH 7.5
human liver microsomes = assay: as above; format: in vitro ADME; conditions: pooled human liver microsomes (n=48)
[5] = Isoflavone glucuronidation assay, cat liver microsomes; format: in vitro ADME; conditions: domestic short-hair, cat, pH 7.5
cat liver microsomes [6] = assay: as above; format: in vitro ADME; conditions: for Vmax, 7-OH-glucuronidation: pooled cat liver microsomes (n=5); for Rank of cat liver glucuronidation rate among species: pooled liver microsomes, 35 µM substrate, 13 species compared
[7] = Isoflavone glucuronidation assay, dog liver microsomes; format: in vitro ADME; conditions: mixed-breed, dog, pH 7.5
dog liver microsomes = assay: as above; format: in vitro ADME; conditions: pooled dog liver microsomes (n=16)
[8] = for Urinary concentration, Unconjugated: without enzyme treatment, normalized to creatinine
[9] = for % Glucuronides: percentage of free and conjugated isoflavones that are glucuronide; for Urinary concentration, Unconjugated: without enzyme treatment, normalized to creatinine
cat liver microsomes [10] = assay: Estradiol glucuronidation assay, cat liver microsomes; format: in vitro ADME; conditions: cat livers, 100 µM substrate
[11] = system: mongoose liver microsomes; assay: Estradiol glucuronidation assay, mongoose liver microsomes; format: in vitro ADME; conditions: mongoose livers, 100 µM substrate
ferret liver microsomes = assay: Estradiol glucuronidation assay, ferret liver microsomes; format: in vitro ADME; conditions: ferret livers, 100 µM substrate
[12] = pooled liver microsomes, 35 µM substrate

SMILES: CC(C(=O)c1c(O)cc(O)cc1O)c1ccc(O)cc1 (stereo not drawn) [6-hydroxy-O-desmethylangolensin]
- Detection of metabolite in urine [1]: not detected
- Detection of metabolite in urine [2]: not detected

SMILES: O=c1c(-c2ccc(O)cc2)coc2cc(O)ccc12 [Daidzein, daidzein]
- 4'-OH-glucuronidation, detection ([3]; 35 µM, pH 7.5): could not be measured in five of the 13 species
- Km ([4]; pooled human liver microsomes): 26.6 ± 5.1 µM
- Vmax, 7-OH-glucuronidation (human liver microsomes): 1.30 ± 0.05 nmoles/min/mg protein
- Km ([5]; pooled cat liver microsomes): 41.9 ± 6.6 µM
- Vmax, 7-OH-glucuronidation (cat liver microsomes [6]): 1.61 ± 0.06 nmoles/min/mg protein
- Rank of cat liver glucuronidation rate among species (cat liver microsomes [6]): within the lowest three out of 13 species
- Km ([7]; pooled dog liver microsomes): 55.4 ± 3.8 µM
- Vmax, 7-OH-glucuronidation (dog liver microsomes): 8.10 ± 0.1 nmoles/min/mg protein

SMILES: O=C1c2c(O)cc(O)cc2OCC1c1ccc(O)cc1 (stereo not drawn) [Dihydrogenistein, dihydrogenistein]
- Urinary concentration, Glucuronides ([8]; pooled dog urine (n=10), after bovine liver β-glucuronidase treatment, mean): 631 pmoles / mg creatinine
- % Glucuronides ([8]; pooled dog urine (n=10), percentage of free and conjugated isoflavones that are glucuronide): 33%
- Urinary concentration, Total ([8]; pooled dog urine (n=10), sum of free and conjugated concentrations, mean): 1919 pmoles / mg creatinine
- Urinary concentration, Unconjugated ([8]; pooled dog urine (n=10), mean): 0 pmoles / mg creatinine
- Urinary concentration, Glucuronides ([9]; pooled cat urine (n=18), after bovine liver β-glucuronidase treatment, mean): 0 pmoles / mg creatinine
- % Glucuronides ([9]; pooled cat urine (n=18)): 0%
- % Glucuronides ([9]; pooled cat urine (n=18), listed as dihydrogenistein): undetectable
- Urinary concentration, Total ([9]; pooled cat urine (n=18), sum of free and conjugated concentrations, mean): 2998 pmoles / mg creatinine
- Urinary concentration, Unconjugated ([9]; pooled cat urine (n=18), mean): 0 pmoles / mg creatinine

SMILES: Oc1ccc([C@H]2COc3cc(O)ccc3C2)cc1 [Equol, equol]
- Equol to daidzein ratio ([8]; individual dog urine samples with detectable equol (three of ten)): 0.004–0.017
- Urinary concentration, Unconjugated ([8]; pooled dog urine (n=10), mean): 0 pmoles / mg creatinine
- 4'-OH-glucuronidation, detection [3, 12]: not detected in any of the species evaluated
- 7-OH-glucuronidation, detection [3, 12]: detected in all species livers’ evaluated except for glucuronidation of equol by mongoose liver
- Km ([4]; pooled human liver microsomes): 31.8 ± 5.1 µM
- Vmax, 7-OH-glucuronidation (human liver microsomes): 17.4 ± 0.7 nmoles/min/mg protein
- Km ([5]; pooled cat liver microsomes): 132 ± 26 µM
- Vmax, 7-OH-glucuronidation (cat liver microsomes [6]): 20.4 ± 1.4 nmoles/min/mg protein
- Rank of cat liver glucuronidation rate among species (cat liver microsomes [6]): within the lowest three out of 13 species
- Km ([7]; pooled dog liver microsomes): 32.6 ± 6.9 µM
- Vmax, 7-OH-glucuronidation (dog liver microsomes): 14.3 ± 0.6 nmoles/min/mg protein

SMILES: O=c1c(-c2ccc(O)cc2)coc2cc(O)cc(O)c12 [Genistein, genistein]
- Urinary concentration, Unconjugated ([8]; pooled dog urine (n=10), mean): 31 pmoles / mg creatinine
- Glucuronidation at the 5-OH position ([3]; search for additional HPLC peaks with the same mass spectrum): no evidence for glucuronidation at that site
- Km [4]: 11.7 ± 2.4 µM
- Vmax, 7-OH-glucuronidation (human liver microsomes): 1.60 ± 0.07 nmoles/min/mg protein
- Urinary concentration, Unconjugated ([9]; pooled cat urine (n=18), mean): 29 pmoles / mg creatinine
- Km [5]: 10.3 ± 2.5 µM
- Vmax, 7-OH-glucuronidation (cat liver microsomes [6]): 2.15 ± 0.1 nmoles/min/mg protein
- Rank of cat liver glucuronidation rate among species (cat liver microsomes [6]): within the lowest three out of 13 species
- Km [7]: 15.3 ± 2.4 µM
- Vmax, 7-OH-glucuronidation (dog liver microsomes): 5.13 ± 0.2 nmoles/min/mg protein

SMILES: COc1cc2c(=O)c(-c3ccc(O)cc3)coc2cc1O [Glycitein, glycitein]
- Urinary concentration, Unconjugated ([8]; pooled dog urine (n=10), mean): 9 pmoles / mg creatinine

SMILES: CC(C(=O)c1ccc(O)cc1O)c1ccc(O)cc1 (stereo not drawn) [O-desmethylangolensin]
- Detection of metabolite in urine [1]: not detected
- Detection of metabolite in urine [2]: not detected

SMILES: Oc1ccc(C2=Cc3ccc(O)cc3OC2)cc1 [dehydroequol]
- Detection of metabolite in urine ([8]; dog urine, before or after treatment with deconjugation enzymes): not detected
- Detection of metabolite in urine ([9]; cat urine, before or after treatment with deconjugation enzymes): not detected

SMILES: C[C@]12CC[C@@H]3c4ccc(O)cc4CC[C@H]3[C@@H]1CC[C@@H]2O [estradiol, β-estradiol]
- Rank of estradiol glucuronidation among 13 species (cat liver microsomes [10]): sixth lowest
- Rank of estradiol glucuronidation among 13 species [11]: fifth
- Rank of estradiol glucuronidation among 13 species (ferret liver microsomes): third lowest
